According to patent publication US20160235778A1, “COMPOSITIONS CONTAINING PUFA, URIDINE AND CHOLINE AND METHODS OF USE THEREOF” (MASSACHUSETTS INSTITUTE OF TECHNOLOGY, priority 2014, published 2016):

Key:
brain phospholipids = assay: Brain phospholipid levels in gerbils given UMP diet and/or PUFA by gavage; assay type: in vivo, gerbil; parameters: PC / PE / PS / PI: unit not given here
Procedure: Control standard diet (Table 4) consisted of Teklad Global 16% protein rodent diet (Harlan Teklad, Madison, Wis.), which contained 0.1% choline chloride (CC), corresponding to a daily dose of 50 mg/kg/day. UMP was provided as 0.5% UMP·2Na^+ weight/weight, added to the control diet, also prepared by Harlan Teklad, corresponding to 240 mg/kg/day UMP. DHA was administered as 300 mg/kg/day in 200 microliter (mcL)/day 5% Arabic Gum solution, while groups not receiving DHA were administered vehicle (5% Arabic Gum) alone. DHA was provided by Nu-Chek Prep (Elysian, MN) and UMP by Numico (Wagenigen, NL).
Gerbils were anesthetized with ketamine and xylazine (80 and 10 mg/kg bwt, i.p.) and sacrificed by immersing the head into liquid nitrogen for 2 min, followed by decapitation. Brains were immediately and quickly (30 seconds) removed using a bone rongeur and stored at −80° C.
Frozen brain hemispheres were weighed and homogenized in 100 volumes of ice-cold deionized water using a tissue degrader (Polytron PT 10-35, Kinematica AG, Switzerland), then analyzed as described in Example 1.
Protein in whole brain homogenate sample was measured for using bicinchoninic acid reagent (Perkin Elmer, Norwalk, Conn., USA). DNA was measured by measuring 460 nm emission of samples on a fluorometer in the presence of bisbenzimidizole, a fluorescent dye known as Hoechst H 33258 (American Hoechst Corporation), which has an excitation maximum at 356 nm and an emission maximum of 458 when bound to DNA.
Male gerbils weighing 80-100 g were divided into 4 groups of 8 gerbils and administered the supplements depicted in Table 1:
Adult gerbils were administered control standard diet (Table 4) with our without 0.5% UMP and/or 300 mg/kg/day DHA, EPA, or AA. Groups not receiving DHA were administered vehicle (5% Arabic Gum) alone.

brain CDP-choline = assay: Brain CDP-choline and CDP-ethanolamine levels (HPLC); assay type: in vivo; details: gerbil
Procedure: FIG. 5A-B. Effects of DHA on brain CDP-choline levels (FIG. 5A) and CDP-ethanolamine levels (FIG. 5B). Groups of 8 gerbils received either a control or a UMP-containing diet, and, by gavage, DHA (in a vehicle of 5% gum Arabic solution) or 5% gum Arabic solution alone for 28 days. On the 29th day brains were harvested and assayed for CDP-choline. Data are presented as means±SEM. Statistical analysis was performed using one- or two-way ANOVA followed by Tukey test. a: P<0.05 when compared with the values for control diet plus vehicle group; b: P<0.05 when compared with values for UMP diet plus vehicle group.
Aliquots (2 ml) of the upper (aqueous) phase were dried under a vacuum, reconstituted, and injected into an HPLC. The dried samples were reconstituted in 100-200 μl water and were analyzed by HPLC on an anion exchange column (Alltech Hypersil APS-2, […], 250×4.6 mm). CDP-choline was eluted with a linear gradient of buffers A (H3PO4, 1.75 mM, pH 2.9) and B (NaH2PO2, 500 mM, pH 4.5) from 0 to 100% B over period of 30 min. With this system, CDP-choline was resolved from closely co-eluting substances such as UMP in an isocratic system over a period of 40 min. The retention time for CDP-choline was 9.5 min. The column was washed with buffer B at the end of each experiment and every several days to remove retained nucleotides. Individual nucleotide peaks were detected by UV absorption at 280 nm and were identified by comparison with the positions of authentic standards, as well as by the addition of nucleotide standards to samples.

[1] = gerbil brain, 3 weeks, 0.5% UMP and/or 300 mg/kg/day PUFA, Table 6
[2] = gerbil brain, 4 weeks, normalized to DNA levels, mean +/- SEM
[3] = gerbil brain, 4 weeks, normalized to protein levels, mean +/- SEM
[4] = gerbil, Table 5A study, vs control

Q: For CCC=CCC=CCC=CCC=CCC=CCC=CCCC(=O)O [DHA, 4,7,10,13,16,19-docosahexaenoic acid], which PC (brain phospholipids; [1]) is on record?
A: 133 ± 6

Q: What about the PE (brain phospholipids; [1]) of the same molecule?
A: 77 ± 2

Q: And the PI (brain phospholipids; [1])?
A: 18 ± 2

Q: What about the PS (brain phospholipids; [1]) of the same molecule?
A: 34 ± 3

Q: What about the SM (brain phospholipids; [1]) of the same molecule?
A: 24 ± 2

Q: What about the “Total PL” value (brain phospholipids; [1]) of the same molecule?
A: 344 ± 16

Q: What about the PC (brain phospholipids; [2]) of the same molecule?
A: 366 ± 13

Q: What about the PE (brain phospholipids; [2]) of the same molecule?
A: 196 ± 18

Q: And the PI (brain phospholipids; [2])?
A: 84 ± 13

Q: What about the PS (brain phospholipids; [2]) of the same molecule?
A: 98 ± 7

Q: And the SM (brain phospholipids; [2])?
A: 126 ± 8

Q: And the “Total PL” value (brain phospholipids; [2])?
A: 909 ± 77

Q: What about the PC (brain phospholipids; [3]) of the same molecule?
A: 185 ± 12

Q: And the PE (brain phospholipids; [3])?
A: 78 ± 5

Q: What about the PI (brain phospholipids; [3]) of the same molecule?
A: 32 ± 2

Q: What about the PS (brain phospholipids; [3]) of the same molecule?
A: 39 ± 3

Q: And the SM (brain phospholipids; [3])?
A: 56 ± 3

Q: What about the “Total PL” value (brain phospholipids; [3]) of the same molecule?
A: 392 ± 20

Q: What about the “increase in levels of total phospholipids” value (brain phospholipids; gerbil brain, 4 weeks, vs control group) of the same molecule?
A: 12%

Q: And the PtdCho (brain phospholipids; gerbil brain, Table 5 part A)?
A: 185 ± 12 nmol/mg prt

Q: And the PtdEtn (brain phospholipids; gerbil brain, Table 5 part A)?
A: 78 ± 5 nmol/mg prt

Q: And the PtdIns (brain phospholipids; gerbil brain, Table 5 part A)?
A: 32 ± 2 nmol/mg prt

Q: What about the PtdSer (brain phospholipids; gerbil brain, Table 5 part A) of the same molecule?
A: 39 ± 3 nmol/mg prt

Q: What about the SM (brain phospholipids; gerbil brain, Table 5 part A) of the same molecule?
A: 56 ± 3 nmol/mg prt

Q: And the “Total PL” value (brain phospholipids; gerbil brain, Table 5 part A)?
A: 392 ± 20 nmol/mg prt

Q: What about the “brain phospholipid levels, in words” value (brain phospholipids; gerbil, 3 weeks) of the same molecule?
A: increased phospholipid levels

Q: And the “increase in brain level of PC” value (brain phospholipids; [4])?
A: 22%

Q: What about the “increase in brain level of PE” value (brain phospholipids; [4]) of the same molecule?
A: 20%

Q: And the “increase in brain level of PI” value (brain phospholipids; [4])?
A: 52%

Q: And the “increase in brain level of sphingomyelin” value (brain phospholipids; [4])?
A: 24%

Q: What about the “reduction of brain CDP-choline levels in UMP-treated gerbils” value (brain CDP-choline; 28 days, compared with UMP-containing diet and DHA's vehicle) of the same molecule?
A: 21%

Q: And the “reduction of brain CDP-choline levels” value (brain CDP-choline; 28 days, compared with control diet and DHA's vehicle)?
A: 26%

Q: And the “brain CDP-choline levels, in words” value (brain CDP-choline; FIG. 5A)?
A: decreased

Q: What about the “brain CDP-ethanolamine levels, in words” value (brain CDP-choline; FIG. 5B) of the same molecule?
A: decreased
